Publication PMC8699473, “An Easily Expandable Multi-Drug LC-MS Assay for the Simultaneous Quantification of 57 Oral Antitumor Drugs in Human Plasma” (Cancers, 2021)
Where “and” joins values, the source holds several entries; their conditions need not be identical. Identical values can stand only once. Like-named read-outs stand apart in the source and are kept apart here.

Assays:
[1] = Autosampler stability of ready for injection samples; type: physicochemical, human
[2] = Freeze-thaw stability in spiked pooled human plasma; type: physicochemical
[3] = Reference trough level (cmin) at steady state; type: in vivo, human; details: minimum steady-state plasma concentration, calculated based on cmax; ref supplement [7], [2,5,24], [51]
[4] = Plasma concentrations in patients on oral antitumor therapy (LC-MS); type: in vivo, human; details: for Measured plasma concentration: 24 h, ±4 h of trough level: no; for Interpatient Coefficient of Variation [%]: patient plasma concentrations; for Median Concentration of All Samples [% of r.c.] / Min–Max Concentration [% of r.c.]: patient plasma, r.c. = respective cmin, all samples
Excerpt: The liquid chromatography-mass spectrometer system consisted of a Thermo Scientific Dionex UltiMate^TM 3000 with an integrated and temperature controlled autosampler (Thermo Fisher Scientific, Dreieich, Germany). An Acquity UPLC® BEH C18 column (2.1 × 100 mm, 1.7 µm; Waters, Milford, CT, USA) equipped with an Acquity UPLC® BEH C18 VanGuard^TM Pre-Column (2.1 × 5 mm, 1.7 µm; Waters, Milford, CT, USA) was used for chromatographic separation. The Q-Exactive^TM Focus mass spectrometer (MS) was hyphenated with a heated electrospray ionization (HESI) source (both from Thermo Fisher Scientific, Dreieich, Germany).
Chromatographic separation was achieved using a gradient elution with water containing 0.5% (v/v) FA (eluent A) and MeOH with 0.1% (v/v) FA (eluent B). The injection volume was 5 µL. The gradient program is shown in Supplement Table S2. The flow rate was 0.5 mL/min with a total run time of 15 min. The column heater was maintained at 50 °C and the autosampler temperature was 4 °C.
The following MS and HESI settings were maintained for all analyses: Sheath gas, auxiliary gas, and sweep gas flow rates were set to 60, 20, and 0, respectively. The spray voltage was 4000 V. Both capillary and auxiliary gas heater temperatures were set to 400 °C. High-purity nitrogen gas was used for the HESI source gases and for the bath gas of the C-trap. […] The HESI source was configured in positive mode for ionization.
The stock solutions were stored in glass vials at −80 °C. Aliquots of all stock solutions were combined in ACN (volumes of individual stock solution solvents are negligible) to obtain a standard solution of all analytes with an individual concentration of 200% of the respective trough level (cmin). Eight individual working standards were prepared by stepwise dilution of this standard solution with concentrations from 10 to 200% cmin (shown in Supplement Table S3). Furthermore, the four individual IS stock solutions were combined and diluted to 50 ng/mL with ACN. Calibration and validation standards were prepared by spiking 50 µL pooled human plasma with 10 µL of the respective working solution. Next, 250 µL IS solution (50 ng/mL in ACN) were added and vortexed vigorously. […] Then, 100 µL supernatant were transferred to 300 µL HPLC insert glass vials and diluted with 100 µL eluent (90% A/10% B). For blank samples, 50 µL pooled human plasma were combined with 10 µL ACN (instead of working solution) and prepared as described above. The calibration and validation standards were freshly prepared before every run. Patient plasma samples were prepared as calibration and validation standards (no additional processing step necessary), except for adding 10 µL ACN instead of 10 µL working standard. Before sample preparation, the frozen plasma samples were thawed in absence of light at 4 °C.
Blood samples were collected over the entire dosing interval from patients treated with an oral anticancer drug as listed in Supplement Table S4. […] A maximum of two samples at two different time points throughout the entire dosing interval were collected per patient. Treatment duration before collection was at least five half-lives (depending on the specific oral anticancer drug). The samples were collected in K3-EDTA tubes.
A total of 71 blood samples from 39 patients treated with 14 different oral anticancer drugs were collected (see Supplement Table S4 for details). All patients were recruited from independent outpatient clinics associated with the Comprehensive Cancer Center of the University Hospital Erlangen (CCC Erlangen-EMN). Of 71 blood samples, 41 were taken ±4 h of trough level (cmin).

[5] = Short-term stability in spiked pooled human plasma (bench-top, 4 °C, 56 °C)
[6] = design: method as in supplement references [1-55] as printed per drug; details: minimum steady-state blood plasma concentration after multiple dose administration; ref supplement references [1-55] per drug; cited from earlier work
[7] = Long-term stability in spiked pooled human plasma

In the case of C=CC(=O)N1CCC[C@@H](n2nc(-c3ccc(Oc4ccccc4)cc3)c3c(N)ncnc32)C1 [Ibrutinib], the “Autosampler (24h, 4°C) Accuracy [%]” value ([1]; validation standard 2xLLOV) is reported as 101.4%, the “Autosampler (72h, 4°C) Accuracy [%]” value ([1]; validation standard 2xLLOV) is reported as 100.0% and the “Autosampler (24h, 4°C) Accuracy [%]” value ([1]; validation standard LLOV) is reported as 97.6%. The “Autosampler (72h, 4°C) Accuracy [%]” value ([1]; validation standard LLOV) was 95.8%, the “Autosampler (24h, 4°C) Accuracy [%]” value ([1]; validation standard MOV) was 103.0% and the “Autosampler (72h, 4°C) Accuracy [%]” value ([1]; validation standard MOV) was 103.7%. For the same compound, the “Autosampler (24h, 4°C) Accuracy [%]” value ([1]; validation standard ULOV) was 100.0%, the “Autosampler (72h, 4°C) Accuracy [%]” value ([1]; validation standard ULOV) was 102.6% and the “Freeze-Thaw Accuracy [%]” value ([2]; validation standard 2xLLOV) was 100.8%. The “Freeze-Thaw Accuracy [%]” value ([2]; validation standard LLOV) was 100.2%, the “Freeze-Thaw Accuracy [%]” value ([2]; validation standard MOV) was 93.3% and the “Freeze-Thaw Accuracy [%]” value ([2]; validation standard ULOV) was 95.6%. For the same compound, the “cmin” value [3] was 66 ng/mL, the “Measured plasma concentration” value ([4]; 420 mg/day) was 3.2 ng/mL and 4.2 ng/mL and the “Measured plasma concentration” value ([4]; 560 mg/day) was 115.2 ng/mL and 139.5 ng/mL. The “Interpatient Coefficient of Variation [%]” value [4] was 110.0%, the “Median Concentration of All Samples [% of r.c.]” value [4] was 110.1 % of r.c and the “Min–Max Concentration [% of r.c.]” value [4] was 4.8–211.4 % of r.c.

For COc1cc2nccc(Oc3ccc(NC(=O)Nc4cc(C)on4)c(Cl)c3)c2cc1OC [Tivozanib], the “Autosampler (24h, 4°C) Accuracy [%]” value ([1]; validation standard 2xLLOV) was 101.5%, the “Autosampler (72h, 4°C) Accuracy [%]” value ([1]; validation standard 2xLLOV) was 102.7% and the “Autosampler (24h, 4°C) Accuracy [%]” value ([1]; validation standard LLOV) was 94.0%. The “Autosampler (72h, 4°C) Accuracy [%]” value ([1]; validation standard LLOV) was 95.0%, the “Autosampler (24h, 4°C) Accuracy [%]” value ([1]; validation standard MOV) was 104.6% and the “Autosampler (72h, 4°C) Accuracy [%]” value ([1]; validation standard MOV) was 102.4%. For the same compound, the “Autosampler (24h, 4°C) Accuracy [%]” value ([1]; validation standard ULOV) was 101.6%, the “Autosampler (72h, 4°C) Accuracy [%]” value ([1]; validation standard ULOV) was 103.1% and the “Short-time stability (1h, 56°C) Accuracy [%]” value ([5]; validation standard 2xLLOV) was 49.4%. The “Short-time stability (24h, 4°C, without daylight) Accuracy [%]” value ([5]; validation standard 2xLLOV) was 103.2%, the “Short-time stability (24h, RT, with daylight) Accuracy [%]” value ([5]; validation standard 2xLLOV) was 104.0% and the “Short-time stability (24h, RT, without daylight) Accuracy [%]” value ([5]; validation standard 2xLLOV) was 103.9%. For the same compound, the “Short-time stability (1h, 56°C) Accuracy [%]” value ([5]; validation standard LLOV) was 38.6%, the “Short-time stability (24h, 4°C, without daylight) Accuracy [%]” value ([5]; validation standard LLOV) was 102.5% and the “Short-time stability (24h, RT, with daylight) Accuracy [%]” value ([5]; validation standard LLOV) was 99.0%. The “Short-time stability (24h, RT, without daylight) Accuracy [%]” value ([5]; validation standard LLOV) was 100.8%, the “Short-time stability (1h, 56°C) Accuracy [%]” value ([5]; validation standard MOV) was 49.6% and the “Short-time stability (24h, 4°C, without daylight) Accuracy [%]” value ([5]; validation standard MOV) was 100.8%. For the same compound, the “Short-time stability (24h, RT, with daylight) Accuracy [%]” value ([5]; validation standard MOV) was 103.5%, the “Short-time stability (24h, RT, without daylight) Accuracy [%]” value ([5]; validation standard MOV) was 105.8% and the “Short-time stability (1h, 56°C) Accuracy [%]” value ([5]; validation standard ULOV) was 42.5%. For the same compound, the “Short-time stability (24h, 4°C, without daylight) Accuracy [%]” value ([5]; validation standard ULOV) was 98.0%, the “Short-time stability (24h, RT, with daylight) Accuracy [%]” value ([5]; validation standard ULOV) was 104.7% and the “Short-time stability (24h, RT, without daylight) Accuracy [%]” value ([5]; validation standard ULOV) was 103.8%. The “cmin” value [6] was 80 ng/mL, the “Long-term stability, 1 month, -20°C Accuracy [%]” value ([7]; validation standard 2xLLOV) was 101.4% and the “Long-term stability, 1 month, -80°C Accuracy [%]” value ([7]; validation standard 2xLLOV) was 95.7%. For the same compound, the “Long-term stability, 2 month, -20°C Accuracy [%]” value ([7]; validation standard 2xLLOV) was 98.9%, the “Long-term stability, 2 month, -80°C Accuracy [%]” value ([7]; validation standard 2xLLOV) was 101.4% and the “Long-term stability, 3 month, -20°C Accuracy [%]” value ([7]; validation standard 2xLLOV) was 96.9%. For the same compound, the “Long-term stability, 3 month, -80°C Accuracy [%]” value ([7]; validation standard 2xLLOV) was 95.2%, the “Long-term stability, 6 weeks, 4°C, without daylight Accuracy [%]” value ([7]; validation standard 2xLLOV) was 93.9% and the “Long-term stability, 1 month, -20°C Accuracy [%]” value ([7]; validation standard LLOV) was 99.8%. The “Long-term stability, 1 month, -80°C Accuracy [%]” value ([7]; validation standard LLOV) was 96.0%, the “Long-term stability, 2 month, -20°C Accuracy [%]” value ([7]; validation standard LLOV) was 95.8% and the “Long-term stability, 2 month, -80°C Accuracy [%]” value ([7]; validation standard LLOV) was 100.7%. The “Long-term stability, 3 month, -20°C Accuracy [%]” value ([7]; validation standard LLOV) was 92.5%, the “Long-term stability, 3 month, -80°C Accuracy [%]” value ([7]; validation standard LLOV) was 97.1% and the “Long-term stability, 6 weeks, 4°C, without daylight Accuracy [%]” value ([7]; validation standard LLOV) was 86.9%. For the same compound, the “Long-term stability, 1 month, -20°C Accuracy [%]” value ([7]; validation standard MOV) was 97.4%, the “Long-term stability, 1 month, -80°C Accuracy [%]” value ([7]; validation standard MOV) was 95.0% and the “Long-term stability, 2 month, -20°C Accuracy [%]” value ([7]; validation standard MOV) was 102.0%. The “Long-term stability, 2 month, -80°C Accuracy [%]” value ([7]; validation standard MOV) was 101.3%, the “Long-term stability, 3 month, -20°C Accuracy [%]” value ([7]; validation standard MOV) was 100.0% and the “Long-term stability, 3 month, -80°C Accuracy [%]” value ([7]; validation standard MOV) was 98.0%. For the same compound, the “Long-term stability, 6 weeks, 4°C, without daylight Accuracy [%]” value ([7]; validation standard MOV) was 107.6%, the “Long-term stability, 1 month, -20°C Accuracy [%]” value ([7]; validation standard ULOV) was 97.0% and the “Long-term stability, 1 month, -80°C Accuracy [%]” value ([7]; validation standard ULOV) was 92.8%. For the same compound, the “Long-term stability, 2 month, -20°C Accuracy [%]” value ([7]; validation standard ULOV) was 100.9%, the “Long-term stability, 2 month, -80°C Accuracy [%]” value ([7]; validation standard ULOV) was 100.3% and the “Long-term stability, 3 month, -20°C Accuracy [%]” value ([7]; validation standard ULOV) was 96.3%. The “Long-term stability, 3 month, -80°C Accuracy [%]” value ([7]; validation standard ULOV) was 96.2%, the “Long-term stability, 6 weeks, 4°C, without daylight Accuracy [%]” value ([7]; validation standard ULOV) was 100.6% and the “Freeze-Thaw Accuracy [%]” value ([2]; validation standard 2xLLOV) was 96.8%. For the same compound, the “Freeze-Thaw Accuracy [%]” value ([2]; validation standard LLOV) was 90.0%, the “Freeze-Thaw Accuracy [%]” value ([2]; validation standard MOV) was 99.9% and the “Freeze-Thaw Accuracy [%]” value ([2]; validation standard ULOV) was 98.1%. The “Interpatient Coefficient of Variation [%]” value [4] was 53.8%, the “Median Concentration of All Samples [% of r.c.]” value [4] was 41.4 % of r.c and the “Min–Max Concentration [% of r.c.]” value [4] was 16.4–68.3 % of r.c.
